Results on seven molecules are retold here after PubChem BioAssay (NCI).

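96-well plates; 48 h exposure; 5 concentrations. Endpoints by linear interpolation between flanking doses. Not reached: highest tested concentration assigned. TGI: concentration producing complete growth inhibition.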

Some test systems named below: T-47D breast; MALME-3M melanoma; SF-295 CNS; K-562 leukemia; HOP-92 NSCLC; HOP-62 NSCLC; SNB-19 CNS; CAKI-1 renal; NCI/ADR-RES ovarian; MOLT-4 leukemia; NCI-H23 lung; SF-268 CNS; TK-10 renal; IGROV1 ovarian; COLO 205 colon; MCF7 breast; NCI-H460 lung; SF-539 CNS; MDA-N.
Experiment in all cases: NCI-60 cell line screen, 48 h

Consider `CC(=O)N/N=C1/CC[C@@]2(C)C(=CC[C@H]3C4CCC(C(C)CCCC(C)C)[C@@]4(C)CCC32)C1(C)C` (some centres undefined), for which the TGI in the test with T-47D breast, with MALME-3M melanoma, with SF-295 CNS, with K-562 leukemia, in the test on HOP-92 NSCLC and in the test on HOP-62 NSCLC was greater than 100 µM each time. Also, the TGI in the test on SNB-19 CNS is greater than 100 µM; with CAKI-1 renal, greater than 100 µM; in the test with NCI/ADR-RES ovarian it was greater than 100 µM; in the test with MOLT-4 leukemia, 34.1 µM; in the test with NCI-H23 lung, greater than 100 µM; in the test with SF-268 CNS it was greater than 100 µM. Moreover, the TGI in the test with TK-10 renal, in the test with IGROV1 ovarian, in the test on COLO 205 colon, in the test on MCF7 breast and with NCI-H460 lung was greater than 100 µM in each case.
Take `Cc1sc(N)c(S(=O)(=O)c2ccccc2)c1C`: the TGI with T-47D breast, in the test with MALME-3M melanoma, in the test with SF-295 CNS, in the test on K-562 leukemia, in the test on HOP-92 NSCLC and in the test with SNB-19 CNS was greater than 100 µM throughout. The TGI in the test with CAKI-1 renal is greater than 100 µM; with NCI/ADR-RES ovarian, greater than 100 µM; in the test with SF-539 CNS, 71 µM; in the test on MOLT-4 leukemia, greater than 100 µM; in the test on NCI-H23 lung it was greater than 100 µM; in the test on SF-268 CNS, greater than 100 µM. Also, the TGI with TK-10 renal, in the test with IGROV1 ovarian, in the test on COLO 205 colon, in the test on MCF7 breast and in the test with NCI-H460 lung was greater than 100 µM each time.
With `NC(=S)N/N=c1\cc(C(=O)Nc2ccc([N+](=O)[O-])cc2[N+](=O)[O-])oc2ccccc12`, the TGI with SF-295 CNS, in the test with HOP-92 NSCLC, with MDA-N, in the test with HOP-62 NSCLC, in the test on SNB-19 CNS and with CAKI-1 renal was greater than 100 µM in each case. The TGI with NCI/ADR-RES ovarian, in the test on SF-539 CNS, in the test on MOLT-4 leukemia, with NCI-H23 lung, in the test with SF-268 CNS and in the test with TK-10 renal was greater than 100 µM throughout. The TGI with IGROV1 ovarian, with COLO 205 colon, in the test on MCF7 breast and in the test on NCI-H460 lung was greater than 100 µM each time.
On to `O=C1/C(=C/c2ccccc2)CCc2ccccc21`, for which the TGI in the test on MALME-3M melanoma came out at 31.9 µM; in the test with SF-295 CNS it was 34 µM; in the test on K-562 leukemia, 20.5 µM; in the test on MDA-N it was 32.2 µM; in the test on HOP-62 NSCLC, 34.4 µM; with SNB-19 CNS, 22.7 µM. For the same molecule, the TGI with CAKI-1 renal came to 32.7 µM; with NCI/ADR-RES ovarian, 83.2 µM; in the test on SF-539 CNS, 31.3 µM; with MOLT-4 leukemia it was 40.8 µM; in the test on NCI-H23 lung, 45.8 µM; with SF-268 CNS it was 37.4 µM. Besides, the TGI in the test with TK-10 renal was 29.2 µM; with IGROV1 ovarian, 54.3 µM; with COLO 205 colon, 38.2 µM; in the test with MCF7 breast, 34.6 µM; in the test on NCI-H460 lung it was 65.4 µM.
Take `CN(/N=C\c1ccc2ccccc2c1)C1=NCCN1`: the TGI with T-47D breast came out at 75.9 µM; in the test on MALME-3M melanoma it was 29.7 µM; in the test on SF-295 CNS, 30.4 µM; with K-562 leukemia it was 45.2 µM; with HOP-92 NSCLC it was 9.02 µM; with HOP-62 NSCLC it was 40.7 µM. Besides, the TGI with CAKI-1 renal is 27.4 µM; in the test on NCI/ADR-RES ovarian, 82.1 µM; in the test with SF-539 CNS, 32.8 µM; in the test on MOLT-4 leukemia, 40.9 µM; with NCI-H23 lung it was greater than 100 µM; with SF-268 CNS, 84.1 µM. Also, the TGI with TK-10 renal came out at 28.5 µM; in the test with IGROV1 ovarian it was 41.6 µM; with COLO 205 colon it was 31.9 µM; in the test on MCF7 breast it was 38.7 µM; with NCI-H460 lung, 30.6 µM.
`C[S+](C)CC(=O)c1ccc2c(c1)Sc1ccccc1O2`: the TGI in the test on T-47D breast is greater than 44.4 µM; in the test with MALME-3M melanoma, 12 µM; with SF-295 CNS it was 16 µM; in the test on K-562 leukemia it was greater than 100 µM; in the test with HOP-92 NSCLC, 21.5 µM; in the test with HOP-62 NSCLC, 28.4 µM. The TGI is 17.1 µM in the test on SNB-19 CNS; 15 µM in the test with CAKI-1 renal; greater than 39.7 µM in the test on NCI/ADR-RES ovarian; 2.29 µM with SF-539 CNS; greater than 94.4 µM with MOLT-4 leukemia; 14 µM in the test on NCI-H23 lung. Also, the TGI in the test on SF-268 CNS worked out at 14.6 µM; in the test on TK-10 renal, 16.3 µM; in the test on IGROV1 ovarian, 8.1 µM; in the test with MCF7 breast, 7.28 µM; in the test with NCI-H460 lung, 16.2 µM.
With `O=[N+]([O-])C(=C(Nc1ccccc1)Nc1ccccc1)/C(Cl)=C(\Cl)Br`, the TGI is 44.8 µM in the test on T-47D breast; 37.1 µM in the test with MALME-3M melanoma; 29.5 µM with SF-295 CNS; 13.2 µM in the test with K-562 leukemia; 33.6 µM in the test on HOP-92 NSCLC; 55.1 µM in the test with HOP-62 NSCLC. In addition, the TGI is 29.7 µM with NCI/ADR-RES ovarian; 46 µM with SF-539 CNS; 13.4 µM with MOLT-4 leukemia; 29.1 µM in the test with NCI-H23 lung; 43.1 µM in the test with SF-268 CNS; 33.9 µM with MCF7 breast. Besides, the TGI in the test with NCI-H460 lung turned out to be 54.5 µM.
